Measured values reported in patent publication US20080312283A1, “Use of Hydroxylamine Derivates for Inhibiting Vitrectomy-Induced Cataracts” (Othera Pharmaceuticals, Inc., priority 2005, published 2008).

Columns and labels:
[1] = Ocular tissue, urine and plasma levels of total radioactivity following a single intravitreal dose; format: in vivo, New Zealand White rabbits
Procedure: A randomized, single treatment study, in nine groups of three NZW rabbits per group, was conducted. Animals were assigned to study groups by a computerized randomization program designed to achieve similar body weights per group. Naïve animals received an intra-vitreous injection of the test article at a nominal dose of 2.0 mg*eq [^14C]Tempol-H (1,4-dihydroxy-2,2,6,6-tetramethylpiperidine(2,4,6-^14C3)). A dose of 0.1 mL, containing 2.18 μCi was administered into both eyes. At nine specified time points post dose (1, 30, 60 minutes, 2, 4, 8, 24, 48, and 120 hours), three animals per group were euthanized and terminal samples were collected. The following tissues were harvested from each eye of all animals: aqueous humor, cornea, iris/ciliary body complex, vitreous humor, lens, retina-choroid plexus and optic nerve. Blood was collected from the marginal ear vein of all rabbits into tubes containing K3EDTA; urine was cage-collected daily from three animals up to 120 hour post dosing. Total radioactivity was determined in all samples by liquid scintillation counting.

lens epithelial cells = details: Mitchell et al. 1991; Krishna et al. 1991; cited from earlier work
cataract = details: Zigler et al., U.S. Pat. No. 6,001,853; cited from earlier work
[2] = test system: retinal S-antigen-induced experimental autoimmune uveoretinitis (EAU); details: systemic injection, rat model (Zamir et al. 1999); cited from earlier work
[3] = New Zealand White, rabbit, in vivo, 8 h

Row | SMILES | concentration of radioactivity in the aqueous humor [1, 3] [μg eq/g] | concentration of radioactivity in the cornea [1, 3] [μg eq/g] | concentration of radioactivity in the iris/ciliary body [1, 3] [μg eq/g] | concentration of radioactivity in the lens [1, 3] [μg eq/g] | concentration of radioactivity in the optic nerve [1, 3] [μg eq/g] | concentration of radioactivity in the retina-choroid plexus [1, 3] [μg eq/g] | concentration of radioactivity in the vitreous humor [1, 3] [μg eq/g] | tissues with the highest concentrations of radioactivity ([1]; one minute post dosing, intravitreal) | levels of total radioactivity in sampled ocular tissues, blood and plasma ([1]; single intravitreal dose, all sampled ocular tissues, blood and plasma) | protection of lens epithelial cells from oxidative damage (lens epithelial cells) | anti-cataractogenic effect compared with the corresponding nitroxide (cataract) | severity of experimental autoimmune uveoretinitis [2]
1 | CC1(C)CC(O)CC(C)(C)N1O [Tempol-H, 1,4-dihydroxy-2,2,6,6-tetramethylpiperidine] | ~30±8 | ~2±0.1 | ~6±0.5 | ~41±6 | ~4±0.5 | ~18±2 | ~25±3 | retina-choroid plexus, vitreous humor and iris-ciliary body complex | Quantifiable levels of total radioactivity were observed in all sampled ocular tissues, blood and plasma | afforded no such protection | better anti-cataractogenic composition than the corresponding nitroxide | –
2 | CC1(C)CC(O)CC(C)(C)N1[O] [tempol, 4-hydroxy-2,2,6,6,-tetramethylpiperidine-1-N-oxyl] | – | – | – | – | – | – | – | – | – | – | – | reduced the severity
